SMILES | melting point
O=C(NCC(F)(F)F)C1(CCCCN2CCN(c3ccc(Cl)c(Cl)c3)CC2)c2ccccc2-c2ccccc21 [Example 12, 9-{4-[4-(3,4-dichlorophenyl)-piperazin-1-yl]-butyl}-9H-fluorene-9-carboxylic acid-(2,2,2-trifluoroethyl)-amide] | 122 °C
Cc1cccc(N2CCN(CCCCC3(C(=O)NCc4ccc(F)cc4)c4ccccc4-c4ccccc43)CC2)n1 [Example 26, 9-{4-[4-(6-methyl-pyridin-2-yl)-piperazin-1-yl]-butyl}-9H-fluorene-9-carboxylic acid-4-fluorobenzyl-amide] | 96 to 97 °C
O=C(NCC(F)(F)F)C1(CCCCN2CCN(c3ccc(C(F)(F)F)cn3)CC2)c2ccccc2-c2ccccc21 [Example 27, 9-{4-[4-(5-trifluoromethyl-pyridin-2-yl)-piperazin-1-yl]-butyl}-9H-fluorene-9-carboxylic acid-(2,2,2-trifluoroethyl)-amide] | 147 to 149 °C
O=C(NCC(F)(F)F)C1(CCCCN2CCN(c3ccc(Cl)c(C(F)(F)F)c3)CC2)c2ccccc2-c2ccccc21 [Example 10, 9-{4-[4-(4-Chloro-3-trifluoromethyl-phenyl)-piperazin-1-yl]-butyl}-9H-fluorene-9-carboxylic acid-(2,2,2-trifluoroethyl)-amide] | 96 °C
COc1cccc(N2CC(C)N(CCCCC3(C(=O)NCc4ccc(F)cc4)c4ccccc4-c4ccccc43)C(C)C2)n1 (centres unmarked) [Example 37, 9-{4-[4-(6-methoxy-pyridin-2-yl)-2,6-dimethyl-piperazin-1-yl]-butyl}-9H-fluorene-9-carboxylic acid-4-fluorobenzyl-amide] | 78 to 79 °C
O=C(NCC(F)(F)F)C1(CCCCN2CCN(c3ccc([N+](=O)[O-])cc3)CC2)c2ccccc2-c2ccccc21 [Example 17, 9-{4-[4-(4-nitro-phenyl)-piperazin-1-yl]-butyl}-9H-fluorene-9-carboxylic acid-(2,2,2-trifluoroethyl)-amide] | 146 °C
COc1cccc(N2CC(C)N(CCCCC3(C(=O)NCC(F)(F)F)c4ccccc4-c4ccccc43)C(C)C2)n1 (centres unmarked) [Example 36, 9-{4-[4-(6-methoxy-pyridin-2-yl)-2,6-dimethyl-piperazin-1-yl]-butyl}-9H-fluorene-9-carboxylic acid-(2,2,2-trifluoroethyl)-amide] | 122 °C
O=C(NCC(F)(F)F)C1(CCCCN2CCN(c3ccc(-c4ccccc4)cc3)CC2)c2ccccc2-c2ccccc21 [Example 3, 9-[4-(4-biphenyl-4-yl-piperazin-1-yl)-butyl]-9H-fluorene-9-carboxylic acid-(2,2,2-trifluoroethyl)-amide] | 209 to 211 °C
COc1ccc(N2CCN(CCCCC3(C(=O)NCC(F)(F)F)c4ccccc4-c4ccccc43)CC2)cc1 [Example 13, 9-{4-[4-(4-methoxy-phenyl)-piperazin-1-yl]-butyl}-9H-fluorene-9-carboxylic acid-(2,2,2-trifluoroethyl)-amide] | 120 °C
Cc1cccc(N2CCN(CCCCC3(C(=O)NCC(F)(F)F)c4ccccc4-c4ccccc43)CC2)n1 [Example 25, 9-{4-[4-(6-methyl-pyridin-2-yl)-piperazin-1-yl]-butyl}-9H-fluorene-9-carboxylic acid-(2,2,2-trifluoroethyl)-amide] | 85 to 87 °C
O=C(NCC(F)(F)F)C1(CCCCN2CCN(c3ccc(OCc4ccccc4)cc3)CC2)c2ccccc2-c2ccccc21 [Example 6, 9-{4-[4-(4-Benzyloxy-phenyl)-piperazin-1-yl]-butyl}-9H-fluorene-9-carboxylic acid-(2,2,2-trifluoroethyl)-amide] | 180 °C
O=C(NCC(F)(F)F)C1(CCCCN2CCN(c3cccc(-c4ccccc4)n3)CC2)c2ccccc2-c2ccccc21 [Example 28, 9-{4-[4-(6-phenyl-pyridin-2-yl)-piperazin-1-yl]-butyl}-9H-fluorene-9-carboxylic acid-(2,2,2-trifluoroethyl)-amide] | 63 °C
O=C(NCC(F)(F)F)C1(CCCCN2CCN(c3cccc(Cl)c3)CC2)c2ccccc2-c2ccccc21 [Example 5, 9-{4-[4-(3-Chloro-phenyl)-piperazin-1-yl]-butyl}-9H-fluorene-9-carboxylic acid-(2,2,2-trifluoroethyl)-amide] | 122 °C
O=C(NCC(F)(F)F)C1(CCCCN2CCN(c3ccccn3)CC2)c2ccccc2-c2ccccc21 [Example 20, 9-{4-[4-Pyridin-2-yl-piperazin-1-yl]-butyl}-9H-fluorene-9-carboxylic acid-(2,2,2-trifluoroethyl)-amide] | 123 °C
O=C(NCC(F)(F)F)C1(CCCCN2CCN(c3cc(-c4ccccc4)ccn3)CC2)c2ccccc2-c2ccccc21 [Example 29, 9-{4-[4-(4-phenyl-pyridin-2-yl)-piperazin-1-yl]-butyl}-9H-fluorene-9-carboxylic acid-(2,2,2-trifluoroethyl)-amide] | 59 °C
COc1cccc(N2CCN(CCCCC3(C(=O)NCC(F)(F)F)c4ccccc4Oc4ccccc43)CC2)n1 [Example 35, 9-{4-[4-(6-methoxy-pyridin-2-yl)-piperazin-1-yl]-butyl}-9H-xanthene-9-carboxylic acid-(2,2,2-trifluoroethyl)-amide] | 122 °C
Cl.Nc1ccc(N2CCN(CCCCC3(C(=O)NCC(F)(F)F)c4ccccc4-c4ccccc43)CC2)cc1 | > 270 °C
O=C(NCC(F)(F)F)C1(CCCCN2CCN(c3ccc(C(F)(F)F)cc3)CC2)c2ccccc2-c2ccccc21 [Example 7, 9-{4-[4-(4-Trifluoromethyl-phenyl)-piperazin-1-yl]-butyl}-9H-fluorene-9-carboxylic acid-(2,2,2-trifluoroethyl)-amide] | 176 °C
O=C(NCC(F)(F)F)C1(CCCCN2CCN(c3ccc(F)cc3)CC2)c2ccccc2-c2ccccc21 [Example 9, 9-{4-[4-(4-Fluorophenyl)-piperazin-1-yl]-butyl}-9H-fluorene-9-carboxylic acid-(2,2,2-trifluoroethyl)-amide] | 116 to 117 °C
O=C(NCC(F)(F)F)C1(CCCCN2CCN(c3ccc(Cl)cc3)CC2)c2ccccc2-c2ccccc21 [Example 4, 9-{4-[4-(4-Chloro-phenyl)-piperazin-1-yl]-butyl}-9H-fluorene-9-carboxylic acid-(2,2,2-trifluoroethyl)-amide] | 166 °C
